Test results from patent publication US9487512B2, “(Hetero)aryl cyclopropylamine compounds as LSD1 inhibitors” (ORYZON GENOMICS, S.A., priority 2011, dated 2016).
pIC50: −log10 of the molar value.

Assays:
[1] = target: Human recombinant monoamine oxidase MAO-B (Homo sapiens (Human), UniProt P27338); test: Monoamine oxidase assay (kynuramine to 4-hydroxyquinoline fluorescence), MAO-B; assay type: biochemical
Excerpt: (§1) Human recombinant monoamine oxidase proteins MAO-A and MAO-B were purchased from Sigma Aldrich. MAOs catalyze the oxidative deamination of primary, secondary and tertiary amines. In order to monitor MAO enzymatic activities and/or their inhibition rate by inhibitor(s) of interest, a fluorescence-based (inhibitor)-screening assay was set up. 3-(2-Aminophenyl)-3-oxopropanamine (kynuramine dihydrobromide, Sigma Aldrich), a non fluorescent compound was chosen as a substrate. Kynuramine is a non-specific substrate for both MAO-A and MAO-B activities. While undergoing oxidative deamination by MAO activities, kynuramine is converted into 4-hydroxyquinoline (4-HQ), a resulting fluorescent product.
(§2) The monoamine oxidase activity was estimated by measuring the conversion of kynuramine into 4-hydroxyquinoline. Assays were conducted in 96-well black plates with clear bottom (Corning) in a final volume of 100 μL. The assay buffer was 100 mM HEPES, pH 7.5. Each experiment was performed in duplicate within the same experiment.
(§3) Clorgyline and Deprenyl (Sigma Aldrich) was used as a control for specific inhibition of MAO-A and MAO-B respectively. […]
(§4) The IC50 values of each inhibitor were calculated with GraphPad Prism Software.

[2] = target: Human recombinant monoamine oxidase MAO-A (Homo sapiens (Human), UniProt P21397); test: Monoamine oxidase assay (kynuramine to 4-hydroxyquinoline fluorescence), MAO-A; assay type: biochemical
Excerpt: as §1, §2, §3, §4

[3] = target: Human recombinant LSD1 protein (Homo sapiens (Human), UniProt O60341); test: Inhibition of LSD1 (Amplex Red H2O2 release, di-methylated H3-K4 peptide substrate)

Sequence of Human recombinant monoamine oxidase MAO-A (P21397 whole entry): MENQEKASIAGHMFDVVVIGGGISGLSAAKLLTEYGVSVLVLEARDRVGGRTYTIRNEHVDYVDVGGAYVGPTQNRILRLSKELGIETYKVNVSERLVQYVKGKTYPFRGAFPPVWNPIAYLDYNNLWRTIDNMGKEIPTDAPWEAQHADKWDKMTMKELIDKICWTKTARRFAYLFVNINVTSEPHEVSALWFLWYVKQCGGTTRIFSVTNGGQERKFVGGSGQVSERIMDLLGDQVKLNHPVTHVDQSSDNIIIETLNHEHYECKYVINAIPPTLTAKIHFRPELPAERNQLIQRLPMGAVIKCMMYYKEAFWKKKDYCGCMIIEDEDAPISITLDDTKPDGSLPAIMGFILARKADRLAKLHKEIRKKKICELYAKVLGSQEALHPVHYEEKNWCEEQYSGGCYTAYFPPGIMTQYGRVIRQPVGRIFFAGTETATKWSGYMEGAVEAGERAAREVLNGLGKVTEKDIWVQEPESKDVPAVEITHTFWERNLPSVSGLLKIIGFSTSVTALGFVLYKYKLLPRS
Sequence of Human recombinant monoamine oxidase MAO-B (P27338 whole entry): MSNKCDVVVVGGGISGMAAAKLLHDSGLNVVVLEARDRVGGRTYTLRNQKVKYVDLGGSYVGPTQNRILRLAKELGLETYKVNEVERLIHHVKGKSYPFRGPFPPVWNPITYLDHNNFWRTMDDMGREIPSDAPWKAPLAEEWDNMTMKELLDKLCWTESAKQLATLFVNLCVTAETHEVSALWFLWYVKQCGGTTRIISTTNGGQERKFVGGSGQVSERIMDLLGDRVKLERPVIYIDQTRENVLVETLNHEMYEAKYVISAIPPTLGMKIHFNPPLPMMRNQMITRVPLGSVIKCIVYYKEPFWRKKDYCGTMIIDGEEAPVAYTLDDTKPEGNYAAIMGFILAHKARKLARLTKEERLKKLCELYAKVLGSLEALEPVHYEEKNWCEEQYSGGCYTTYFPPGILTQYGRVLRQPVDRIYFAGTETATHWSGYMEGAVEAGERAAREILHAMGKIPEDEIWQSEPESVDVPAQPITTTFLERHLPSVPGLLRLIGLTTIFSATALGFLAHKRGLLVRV

IC50 [1]: > 100 µM
IC50 [2]: > 100 µM
pIC50 [3]: ~4.00
SMILES: Oc1ccc(C2CC2NC2CCNCC2)cc1 (stereo not drawn) [Example 23, 4-(2-(piperidin-4-ylamino)cyclopropyl)phenol]
